# Experiments:
# [1] = Dissolution studies for Example 2 (TA0 to TA14); assay type: physicochemical; settings: 4.5 Acetate Buffer + 0.75% SLS, Type II, 500 mL, 60 RPM
# [2] = Saturation solubility of drug substance in different dissolution media (incubator shaker, 24 hrs, HPLC); assay type: physicochemical; settings: 37° C.; for solubility at 24 h: thermodynamic from solid
# Procedure: Solubility study of drug substance was carried out in different dissolution media. The saturated solutions of drug substance were prepared in the recommended dissolution media. Initial pH of the saturated solutions was noted. Then the solutions were allowed to shake for 24 hours in the incubator shaker at 150 RPM. The temperature was kept around 37° C.±0.5° C. After 24 hours of shaking, pH of saturated solutions was noted. Further dilutions of these solutions were made as per the standard concentration. Analysis was carried out using HPLC technique. The sample was prepared in triplicates for saturation solubility determination.
# [3] = cited from earlier work
# [4] = as disclosed in US'304 patent; cited from earlier work
# [5] = pH 4.5 Acetate Buffer + 0.75% SDS
# [6] = pH 6.8 Phosphate Buffer + 0.75% SDS
# [7] = pH 7.0 Phosphate Buffer + 0.75% SDS
structure (smiles),measurement,setting,value
"CC(=O)Nc1cccc(-n2c(=O)n(C3CC3)c(=O)c3c(Nc4ccc(I)cc4F)n(C)c(=O)c(C)c32)c1.CC(=O)O [TA2, Trametinib acetic acid solvate]",% DR,[1]; 5 mins,2%
same,% DR,[1]; 10 mins,3%
same,% DR,[1]; 15 mins,5%
same,% DR,[1]; 20 mins,7%
same,% DR,[1]; 30 mins,9%
same,% DR,[1]; 45 mins,13%
same,% DR,[1]; 60 mins,16%
same,% DR,[1]; 90 mins,23%
same,% DR,[1]; 120 mins,29%
"CC(=O)Nc1cccc(-n2c(=O)n(C3CC3)c(=O)c3c(Nc4ccc(I)cc4F)n(C)c(=O)c(C)c32)c1.C[S+](C)[O-] [Trametinib DMSO, Trametinib dimethyl sulfoxide]",Average solubility,[2]; 0.1N HCl + 0.75% SDS,0.05 mg/mL
same,Solubility mg/250 mL,[2]; 0.1N HCl + 0.75% SDS,11.7 mg/250 mL
same,Solubility mg/500 mL,[2]; 0.1N HCl + 0.75% SDS,23 mg/500 mL
same,Solubility mg/900 mL,[2]; 0.1N HCl + 0.75% SDS,42 mg/900 mL
same,Solubility mg/250 mL,[2]; 0.1N HCl,0.8 mg/250 mL
same,Solubility mg/500 mL,[2]; 0.1N HCl,2 mg/500 mL
same,Solubility mg/900 mL,[2]; 0.1N HCl,3 mg/900 mL
same,Average solubility,[2]; [5],0.24 mg/mL
same,Solubility mg/250 mL,[2]; [5],60.0 mg/250 mL
same,Solubility mg/500 mL,[2]; [5],120 mg/500 mL
same,Solubility mg/900 mL,[2]; [5],216 mg/900 mL
same,Solubility mg/250 mL,[2]; pH 4.5 Acetate Buffer,0.0 mg/250 mL
same,Solubility mg/500 mL,[2]; pH 4.5 Acetate Buffer,0 mg/500 mL
same,Solubility mg/900 mL,[2]; pH 4.5 Acetate Buffer,0 mg/900 mL
same,Average solubility,[2]; [6],0.07 mg/mL
same,Solubility mg/250 mL,[2]; [6],18.3 mg/250 mL
same,Solubility mg/500 mL,[2]; [6],37 mg/500 mL
same,Solubility mg/900 mL,[2]; [6],66 mg/900 mL
same,Solubility mg/250 mL,[2]; pH 6.8 Phosphate Buffer,0.0 mg/250 mL
same,Solubility mg/500 mL,[2]; pH 6.8 Phosphate Buffer,0 mg/500 mL
same,Solubility mg/900 mL,[2]; pH 6.8 Phosphate Buffer,0 mg/900 mL
same,Average solubility,[2]; [7],0.07 mg/mL
same,Solubility mg/250 mL,[2]; [7],18.3 mg/250 mL
same,Solubility mg/500 mL,[2]; [7],37 mg/500 mL
same,Solubility mg/900 mL,[2]; [7],66 mg/900 mL
same,Solubility mg/250 mL,[2]; pH 7.0 Phosphate Buffer,0.0 mg/250 mL
same,Solubility mg/500 mL,[2]; pH 7.0 Phosphate Buffer,0 mg/500 mL
same,Solubility mg/900 mL,[2]; pH 7.0 Phosphate Buffer,0 mg/900 mL
same,% DR,[1]; 5 mins,27%
same,% DR,[1]; 10 mins,34%
same,% DR,[1]; 15 mins,38%
same,% DR,[1]; 20 mins,39%
same,% DR,[1]; 30 mins,41%
same,% DR,[1]; 45 mins,42%
same,% DR,[1]; 60 mins,43%
same,% DR,[1]; 90 mins,44%
same,% DR,[1]; 120 mins,44%
same,Solubility in aqueous media,[3]; pH range of 2 to 8,practically insoluble
"CC(=O)Nc1cccc(-n2c(=O)n(C3CC3)c(=O)c3c(Nc4ccc(I)cc4F)n(C)c(=O)c(C)c32)c1 [Trametinib, N-(3-{3-Cyclopropyl-5-[(2-fluoro-4-iodophenyl)amino]-6,8-dimethyl-2,4,7-trioxo-3,4,6,7-tetrahydropyrido[4,3-d]pyrimidin-1 (2H)-yl}phenyl) acetamide]",Solubility mg/250 mL,[2]; 0.1N HCl + 0.75% SDS,17 mg/250 mL
same,Solubility mg/500 mL,[2]; 0.1N HCl + 0.75% SDS,33 mg/500 mL
same,Solubility mg/900 mL,[2]; 0.1N HCl + 0.75% SDS,60 mg/900 mL
same,Solubility mg/250 mL,[2]; 0.1N HCl,4.2 mg/250 mL
same,Solubility mg/500 mL,[2]; 0.1N HCl,8 mg/500 mL
same,Solubility mg/900 mL,[2]; 0.1N HCl,15 mg/900 mL
same,solubility at 24 h,"[2]; aqueous buffer, pH 4.5 Acetate Buffer",10 µg/mL
same,solubility at 24 h,"[2]; aqueous buffer, pH 6.8 Phosphate Buffer",20 µg/mL
same,solubility at 24 h,"[2]; aqueous with cosolvent or surfactant or cyclodextrin, 0.1N HCl + 0.75% SDS",70 µg/mL
same,solubility at 24 h,"[2]; aqueous with cosolvent or surfactant or cyclodextrin, pH 4.5 Acetate Buffer + 0.75% SDS",100 µg/mL
same,solubility at 24 h,"[2]; aqueous with cosolvent or surfactant or cyclodextrin, pH 6.8 Phosphate Buffer + 0.75% SDS",10 µg/mL
same,solubility at 24 h,"[2]; aqueous with cosolvent or surfactant or cyclodextrin, pH 7.0 Phosphate Buffer + 0.75% SDS",10 µg/mL
same,Solubility mg/250 mL,[2]; [5],24 mg/250 mL
same,Solubility mg/500 mL,[2]; [5],48 mg/500 mL
same,Solubility mg/900 mL,[2]; [5],87 mg/900 mL
same,Solubility mg/250 mL,[2]; pH 4.5 Acetate Buffer,2.5 mg/250 mL
same,Solubility mg/500 mL,[2]; pH 4.5 Acetate Buffer,5 mg/500 mL
same,Solubility mg/900 mL,[2]; pH 4.5 Acetate Buffer,9 mg/900 mL
same,Solubility mg/250 mL,[2]; [6],3 mg/250 mL
same,Solubility mg/500 mL,[2]; [6],5 mg/500 mL
same,Solubility mg/900 mL,[2]; [6],9 mg/900 mL
same,Solubility mg/250 mL,[2]; pH 6.8 Phosphate Buffer,4.2 mg/250 mL
same,Solubility mg/500 mL,[2]; pH 6.8 Phosphate Buffer,8 mg/500 mL
same,Solubility mg/900 mL,[2]; pH 6.8 Phosphate Buffer,15 mg/900 mL
same,Solubility mg/250 mL,[2]; [7],3 mg/250 mL
same,Solubility mg/500 mL,[2]; [7],5 mg/500 mL
same,Solubility mg/900 mL,[2]; [7],9 mg/900 mL
same,Solubility mg/250 mL,[2]; pH 7.0 Phosphate Buffer,0.0 mg/250 mL
same,Solubility mg/500 mL,[2]; pH 7.0 Phosphate Buffer,0 mg/500 mL
same,Solubility mg/900 mL,[2]; pH 7.0 Phosphate Buffer,0 mg/900 mL
same,solubility at 24 h,"[2]; simulated gastric fluid, 0.1N HCl",20 µg/mL
same,% DR,[1]; 5 mins,9%
same,% DR,[1]; 10 mins,11%
same,% DR,[1]; 15 mins,12%
same,% DR,[1]; 20 mins,13%
same,% DR,[1]; 30 mins,14%
same,% DR,[1]; 45 mins,16%
same,% DR,[1]; 60 mins,17%
same,% DR,[1]; 90 mins,19%
same,% DR,[1]; 120 mins,21%
same,Exposure and absorption upon in vivo administration,[4],poor exposure and absorption
same,Solubility relative to dimethyl sulfoxide solvate,[3]; as disclosed in US'304 patent,much less soluble than dimethyl sulfoxide solvate of Trametinib
